Results: patent publication US20080051387A1, “TETRAHYDROPYRIDO[3,4-D]PYRIMIDINES AND RELATED ANALOGUES” (priority 2006, published 2008)

target: T1, chimeric human H3 receptor (Homo sapiens, UniProt Q9Y5N1); assay: Chimeric human H3 receptor screening GTP binding assay (inhibition of histamine-stimulated GTP-gamma35S binding, Example 8); format: biochemical; conditions: 1 h; assay described in Example 8; symbol "!" in column headed Ki; read-out: Ki ("!": percent inhibition of agonist-induced GTP-gammaS binding to H3)
T1 construct: rat Galpha-i2 (Gnai2, rat); made in house; host or cells: Sf9 insect cells (baculovirus); P2 membranes
Description: This Example illustrates a representative screening assay for evaluating inhibition of histamine-stimulated GTP-gamma^35S binding. Such GTP binding activity can be used to identify H3 antagonists and inverse agonists. A compound analyzed in this assay is referred to herein as a “test compound,” and the initial identification of antagonists and inverse agonists is performed using a test compound concentration of 4 μM.
Four independent baculoviral stocks (one directing the expression of the chimeric human H3 receptor and three directing the expression of each of the three subunits of a heterotrimeric G-protein) are used to infect a culture of Sƒ9 cells as described above. P2 membranes are prepared as described above, and are resuspended by Dounce homogenization (tight pestle) in GTP binding assay buffer (50 mM Tris pH 7.4, 120 mM NaCl, 5 mM MgCl2, 2 mM EGTA, 1 mg/ml BSA, 0.2 mg/ml bacitracin, 0.02 mg/ml aprotinin, 0.01 mg/ml saponin, 10 μM GDP) and added to assay tubes at a concentration of 35 μg protein/reaction tube. Non-radiolabeled test compounds are added to separate reactions at a concentration of 4 μM along with 1 μM histamine (agonist). Reactions are initiated by the addition of 125 pM GTP-gamma^35S with a final assay volume of 0.20 ml.
After a 60-min incubation at room temperature, reactions are terminated by vacuum filtration over GF/C filters (pre-soaked in 50 mM Tris pH 7.4, 120 mM NaCl plus 0.1% BSA) followed by washing with ice-cold buffer (50 mM Tris pH 7.4, 120 mM NaCl). The amount of receptor-bound (and thereby membrane-bound) GTP-gamma^35S is determined by measuring the bound radioactivity, preferably by liquid scintillation spectrometry of the washed filters. Non-specific binding is determined using 10 uM GTP-gammaS and typically represents less than 5 percent of total binding. After subtraction of non-specific binding, data is expressed as percent inhibition of 1 μM histamine signal.
Neutral antagonists are those test compounds that reduce the histamine-stimulated GTP binding activity towards, but not below, baseline levels. In contrast, in the absence of added histamine, inverse agonists reduce the GTP binding activity of the receptor-containing membranes below baseline. Any test compound that elevates GTP binding activity above baseline in the absence of added histamine in this assay is defined as having agonist activity.

T1 sequence (Q9Y5N1 with tags, fused parts or gaps): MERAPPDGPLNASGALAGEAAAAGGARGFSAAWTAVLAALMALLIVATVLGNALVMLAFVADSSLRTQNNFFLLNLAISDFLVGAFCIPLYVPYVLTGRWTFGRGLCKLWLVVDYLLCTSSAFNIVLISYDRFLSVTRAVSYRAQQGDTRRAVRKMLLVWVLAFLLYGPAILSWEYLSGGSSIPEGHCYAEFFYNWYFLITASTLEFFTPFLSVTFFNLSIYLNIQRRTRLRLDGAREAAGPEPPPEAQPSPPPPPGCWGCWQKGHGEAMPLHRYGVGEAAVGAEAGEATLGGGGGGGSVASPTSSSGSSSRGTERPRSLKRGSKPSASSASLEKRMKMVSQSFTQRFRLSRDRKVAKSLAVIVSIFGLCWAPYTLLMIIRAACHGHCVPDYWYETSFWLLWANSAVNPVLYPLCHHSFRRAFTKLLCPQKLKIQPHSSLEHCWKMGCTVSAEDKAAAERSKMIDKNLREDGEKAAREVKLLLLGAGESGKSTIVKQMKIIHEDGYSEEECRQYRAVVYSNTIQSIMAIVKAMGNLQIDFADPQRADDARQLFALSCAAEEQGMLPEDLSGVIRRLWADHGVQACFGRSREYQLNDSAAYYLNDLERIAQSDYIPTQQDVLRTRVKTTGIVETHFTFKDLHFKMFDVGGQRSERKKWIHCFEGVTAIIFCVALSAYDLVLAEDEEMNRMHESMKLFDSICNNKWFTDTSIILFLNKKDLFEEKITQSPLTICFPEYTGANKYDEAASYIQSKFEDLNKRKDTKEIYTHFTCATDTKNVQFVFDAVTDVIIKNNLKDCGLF

Inhibition at 4 µM, ≥ 90%:
CSc1sc(C(=O)N2CCc3cnc(N4CCN(C5CCC5)CC4)nc3CC2)c2c1C=CCC2 [Compound 458, 2-(4-cyclobutylpiperazin-1-yl)-7-{[3-(methylthio)-6,7-dihydro-2-benzothien-1-yl]carbonyl}-6,7,8,9-tetrahydro-5H-pyrimido[4,5-d]azepine]
COc1cc(Cl)ccc1C(=O)N1CCc2cnc(N3CCN(C4CCC4)CC3)nc2CC1 [Compound 421, 7-(4-chloro-2-methoxybenzoyl)-2-(4-cyclobutylpiperazin-1-yl)-6,7,8,9-tetrahydro-5H-pyrimido[4,5-d]azepine]
COc1ccc(OC)c(/C=C/C(=O)N2CCc3cnc(N4CCN(C5CCC5)CC4)nc3CC2)c1 [Compound 574, 2-(4-cyclobutylpiperazin-1-yl)-7-[(2E)-3-(2,5-dimethoxyphenyl)prop-2-enoyl]-6,7,8,9-tetrahydro-5H-pyrimido[4,5-d]azepine]
Cc1cccc(CC(=O)N2CCc3cnc(N4CCN(C5CCC5)CC4)nc3CC2)c1 [Compound 514, 2-(4-cyclobutylpiperazin-1-yl)-7-[(3-methylphenyl)acetyl]-6,7,8,9-tetrahydro-5H-pyrimido[4,5-d]azepine]
CCCc1c(C(=O)N2CCc3cnc(N4CCN(C5CCC5)CC4)nc3CC2)cnn1-c1ccccc1 [Compound 508, 2-(4-cyclobutylpiperazin-1-yl)-7-[(1-phenyl-5-propyl-1H-pyrazol-4-yl)carbonyl]-6,7,8,9-tetrahydro-5H-pyrimido[4,5-d]azepine]
CCOc1ncccc1C(=O)N1CCc2cnc(N3CCN(C4CCC4)CC3)nc2CC1 [Compound 543, 2-(4-cyclobutylpiperazin-1-yl)-7-[(2-ethoxypyridin-3-yl)carbonyl]-6,7,8,9-tetrahydro-5H-pyrimido[4,5-d]azepine]
O=C(/C=C/c1ccc(OCc2ccc(F)cc2)cc1)N1CCc2cnc(N3CCN(C4CCC4)CC3)nc2CC1 [Compound 562, 2-(4-cyclobutylpiperazin-1-yl)-7-[(2E)-3-{4-[(4-fluorobenzyl)oxy]phenyl}prop-2-enoyl]-6,7,8,9-tetrahydro-5H-pyrimido[4,5-d]azepine]

same assay, conditions: 1 h; assay of Example 8; symbol "!" in column headed Ki; read-out: percent inhibition of agonist-induced GTP-gammaS binding to H3

Inhibition at 4 µM, ≥ 90%:
Cc1ccc(CN2CCc3cnc(N4CCN(C5CCC5)CC4)nc3CC2)cc1 [Compound 234, 2-(4-cyclobutylpiperazin-1-yl)-7-(4-methylbenzyl)-6,7,8,9-tetrahydro-5H-pyrimido[4,5-d]azepine]
Cc1ccc(CN2CCc3cnc(N4CCN(C5CCC5)CC4)nc3CC2)cc1C [Compound 257, 2-(4-cyclobutylpiperazin-1-yl)-7-(3,4-dimethylbenzyl)-6,7,8,9-tetrahydro-5H-pyrimido[4,5-d]azepine]
Cc1ccccc1CC(=O)N1CCc2cnc(N3CCN(C4CCC4)CC3)nc2CC1 [Compound 305, 2-(4-cyclobutylpiperazin-1-yl)-7-[(2-methylphenyl)acetyl]-6,7,8,9-tetrahydro-5H-pyrimido[4,5-d]azepine]
CCC(C)CN1CCc2cnc(N3CCN(C4CCC4)CC3)nc2CC1 (centres unmarked) [Compound 252, 2-(4-cyclobutylpiperazin-1-yl)-7-(2-methylbutyl)-6,7,8,9-tetrahydro-5H-pyrimido[4,5-d]azepine]

same assay, conditions: symbol ! in Ki; test compound 4 μM, 1 μM histamine; read-out: percent inhibition of agonist-induced GTP-gammaS binding to H3

Inhibition at 4 µM, ≥ 90%:
COc1ccc(CN2CCc3ncnc(N4CCN(C5CCC5)CC4)c3CC2)c(OC)c1 [Compound 158, 4-(4-cyclobutylpiperazin-1-yl)-7-(2,4-dimethoxybenzyl)-6,7,8,9-tetrahydro-5H-pyrimido[4,5-d]azepine]
O=C(C1CCOC1)N1CCc2c(ncnc2N2CCN(C3CCC3)CC2)C1 (centres unmarked) [Compound 58, 4-(4-cyclobutylpiperazin-1-yl)-7-(tetrahydrofuran-3-ylcarbonyl)-5,6,7,8-tetrahydropyrido[3,4-d]pyrimidine]
c1ccc2c(CN3CCc4nc(N5CCN(C6CCC6)CC5)ncc4C3)ccnc2c1 [Compound 617, 2-(4-cyclobutylpiperazin-1-yl)-6-(quinolin-4-ylmethyl)-5,6,7,8-tetrahydropyrido[4,3-d]pyrimidine]
